Assay results: ChEMBL document CHEMBL1143234, “Uncovering false positives on a virtual screening search for cruzain inhibitors” (Bioorg Med Chem Lett, 2008)
Activity calls are given as the source filed them. The rule behind the calls is not given here.

Key:
[1] = target: Cruzipain (Trypanosoma cruzi) (UniProt P25779); assay: Inhibition of Trypanosoma cruzi cruzain
[2] = target: Cruzipain (Trypanosoma cruzi) (UniProt P25779); assay: Inhibition of Trypanosoma cruzi cruzain upto 0.67 mM
[3] = target: Cruzipain (Trypanosoma cruzi) (UniProt P25779); assay: Inhibition of Trypanosoma cruzi cruzain upto 7.22 mM
[4] = target: Cruzipain (Trypanosoma cruzi) (UniProt P25779); assay: Inhibition of Trypanosoma cruzi cruzain upto 38.71 mM

Sequence of Cruzipain (Trypanosoma cruzi) (P25779 123-467 limits assumed): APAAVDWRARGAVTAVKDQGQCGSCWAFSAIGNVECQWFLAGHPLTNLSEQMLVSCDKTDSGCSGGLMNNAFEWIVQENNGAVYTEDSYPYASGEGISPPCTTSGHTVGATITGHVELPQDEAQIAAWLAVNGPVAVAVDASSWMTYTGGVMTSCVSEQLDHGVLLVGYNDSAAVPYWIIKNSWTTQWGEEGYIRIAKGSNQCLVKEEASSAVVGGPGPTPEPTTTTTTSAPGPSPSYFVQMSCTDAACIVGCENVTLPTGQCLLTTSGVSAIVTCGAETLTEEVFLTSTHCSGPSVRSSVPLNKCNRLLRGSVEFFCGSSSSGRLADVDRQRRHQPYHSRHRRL

Row | Activity [1] [µM] | Structure (SMILES) | also measured
1 | 4.17 | N#Cc1c(NC(=O)CC(NC(=O)c2ccccc2Cl)c2ccccc2)sc2c1CCCC2 (stereo unspecified) | 
2 | 17.3 | N#Cc1ccccc1NC(=O)C(=O)Nc1ccccc1C#N | 

Continued, compound first:

Row | Structure (SMILES) | Activity [1] [µM] | also measured
3 | O=C(/C=C/c1cccs1)NC(Cc1ccccc1)c1nc2ccccc2[nH]1 (stereo unspecified) | 44.9 | 
4 | O=C(NC(Cc1c[nH]c2ccccc12)C(=O)N/N=C1\CCCN1)c1cccs1 (stereo unspecified) |  | Activity [2]: inactive
5 | N#CC1(NC(=O)c2cc3ccccc3oc2=O)CCCCC1 |  | Activity [3]: inactive
6 | N#Cc1ccsc1NC(=O)/C=C/c1cccc(Cl)c1 |  | Activity [4]: inactive
